Experimental data: patent US20220395511A1, “COMPOSITIONS AND METHODS FOR INCREASING CELL SURFACE OXYTOCIN RECEPTOR (OXTR)” (Washington University, priority 2021, published 2022)
Entries after “also recorded” stand apart in the source; their conditions may differ. Where two headings read alike, the source gives them in different places.

How the values were obtained:
[1] = target: T1, WT OXTR endogenously expressed in hTERT-HM cells (Homo sapiens, UniProt P30559); experiment: Quantitative flow cytometry of cell surface HA-OXTR in hTERT-HM cells; assay type: cell-based; settings: for decrease of baseline cell surface OXTR abundance: cycloheximide 25 μg/mL, brefeldin A 5 μg/mL
T1 construct: hTERT-immortalized human myometrial (hTERT-HM) cells, which endogenously express WT OXTR; endogenous in cells; host or cells: hTERT-HM (genome-edited: HA knock-in at the OXTR locus)
T1 sequence (P30559 1-389): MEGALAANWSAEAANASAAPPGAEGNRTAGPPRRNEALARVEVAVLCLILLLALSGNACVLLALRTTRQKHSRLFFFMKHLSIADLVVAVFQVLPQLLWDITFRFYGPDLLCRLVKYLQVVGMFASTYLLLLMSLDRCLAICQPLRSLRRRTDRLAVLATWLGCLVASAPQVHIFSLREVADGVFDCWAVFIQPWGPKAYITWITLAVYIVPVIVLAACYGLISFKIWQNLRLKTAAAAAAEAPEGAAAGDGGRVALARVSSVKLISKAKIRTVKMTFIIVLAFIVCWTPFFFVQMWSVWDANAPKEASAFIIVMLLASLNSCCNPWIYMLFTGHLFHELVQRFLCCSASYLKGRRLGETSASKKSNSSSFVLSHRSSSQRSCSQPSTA
Protocol: These experiments were performed in the hTERT-immortalized human myometrial cell line, which was modified to introduce an N-terminal HA tag upstream of OXTR. […] OXTR was quantified by performing flow cytometry with a fluorescent antibody against HA. TCOT=TC-OT 39 ((2S)—N-[[4-[(4,10-dihydro-1-methylpyrazolo[3,4-b][1,5]benzodiazepin-5(1H)-yl)carbonyl]-2-methylphenyl]methyl]-2-[(hexahydro-4-methyl-1H-1,4-diazepin-1-yl)thioxomethyl]-1-pyrrolidinecarboxamide), partial OXTR agonist. CON=conivaptan (N-[4-(2-methyl-4,5-dihydro-3H-imidazo[4,5-d][1]benzazepine-6-carbonyl)phenyl]-2-phenylbenzamide; also known as YM087), vasopressin inhibitor. TASP=TASP 0390325 (2-(3-Chloro-4-fluorophenyl)-N-(1-methylethyl)-6-[3-(4-morpholinyl)propoxy]-4-oxo-pyrido[2,3-d]pyrimidine-3(4H)-acetamide hydrochloride), vasopressin inhibitor. WAY=WAY 267464 (4-(3,5-Dihydroxybenzyl)-N-(2-methyl-4-[(1-methyl-4,10-dihydropyrazolo[3,4-b][1,5]benzodiazepin-5(1H)-yl)carbonyl]benzyl)piperazine-1-carboxamide), OXTR agonist. TOL=tolvaptan (N-(4-{[(5R)-7-Chloro-5-hydroxy-2,3,4,5-tetrahydro-1H-1-benzazepin-1-yl]carbonyl}-3-methylphenyl)-2-methylbenzamide; also known as OPC41061), vasopressin inhibitor. OPC=OPC 21268 (N-[3-[4-[[4-(3,4-dihydro-2-oxo-1(2H)-quinolinyl)-1-piperidinyl]carbonyl]phenoxy]propyl]-acetamide), vasopressin inhibitor. SSR=SSR 149415 ((2S,4R)-1-[(3R)-5-Chloro-1-[(2,4-dimethoxyphenyl)sulfonyl]-2,3-dihydro-3-(2-methoxyphenyl)-2-oxo-1H-indol-3-yl]-4-hydroxy-N,N-dimethyl-2-pyrrolidinecarboxamide), vasopressin inhibitor. SR=SR49059 ((2S)-1-[[(2R,3S)-5-Chloro-3-(2-chlorophenyl)-1-[(3,4-dimethoxyphenyl)sulfonyl]-2,3-dihydro-3-hydroxy-1H-indol-2-yl]carbonyl]-2-pyrrolidinecarboxamide), vasopressin inhibitor. L371=L371,257 (1-[1-[4-(1-acetylpiperidin-4-yl)oxy-2-methoxybenzoyl]piperidin-4-yl]-4H-3,1-benzoxazin-2-one), OXTR antagonist.
Because specific antibodies to OXTR are not commercially available, CRISPR-Cas9 was used to introduce an HA tag at the N-terminus of OXTR in the hTERT-HM cell line. […]
To determine the mechanism of action of SR49059 and L371,257, hTERT-HM cells were treated for 12 h with cycloheximide (25 μg/mL), which inhibits protein translation, and brefeldin A (5 μg/mL), which blocks protein transport from the endoplasmic reticulum to the Golgi.
The Genome Engineering and iPSC Center at Washington University in St Louis used CRISPR-Cas9 to introduce an HA tag at the N-terminus of the OXTR gene in hTERT-HM cells. After drug incubation, cells were detached with TrypLE Express (Thermo Fisher) before flow cytometry.

[2] = target: T2, WT OXTR in hTERT-HM cells (Homo sapiens, UniProt P30559); experiment: Oxytocin-induced IP1 production in hTERT-HM cells; assay type: cell-based; settings: for increase of maximal IP1 production: hTERT-HM, N=5 (FIG. 8D)
T2 construct: hTERT-immortalized human myometrial (hTERT-HM) cells, which endogenously express WT OXTR; endogenous in cells; host or cells: hTERT-HM
T2 sequence (P30559 1-389): T1 sequence (P30559 1-389)

[3] = target: T3, WT OXTR (Homo sapiens, UniProt P30559); experiment: Quantitative flow cytometry of cell surface WT HA-OXTR-GFP in transfected HEK293T cells; assay type: cell-based; settings: for more surface WT OXTR than vehicle-treated cells: HEK293T, WT HA-OXTR-GFP, 10 μM, 16 h
T3 construct: expressed in transfected cells; host or cells: HEK293T (transient)
T3 sequence (P30559 1-389): T1 sequence (P30559 1-389)

[4] = target: T4, OXTR (Homo sapiens, UniProt P30559); settings: in words, cited from earlier work
T4 sequence (P30559 1-389): T1 sequence (P30559 1-389)

[5] = hTERT-HM, HA-OXTR, 10 μM, 16 h (overnight)

C[C@@H]1C[C@@H]([C@H](O)CC2CC(=O)NC(=O)C2)C(=O)[C@@H](C)C1 [Cycloheximide]
decrease of baseline cell surface OXTR abundance ([1]; hTERT-HM, 12 h): 18%

COc1cc(OC2CCN(C(C)=O)CC2)ccc1C(=O)N1CCC(N2C(=O)OCc3ccccc32)CC1 [L371,257, 1-[1-[4-(1-acetylpiperidin-4-yl)oxy-2-methoxybenzoyl]piperidin-4-yl]-4H-3,1-benzoxazin-2-one]
effect on cell surface OXTR in cells also treated with brefeldin A [1]: no effect | effect on cell surface OXTR in hTERT-HM cells [1]: greatest effect of all the candidate compounds | increase of cell surface OXTR abundance [1]: 2.9 fold | increase of surface OXTR in cells treated with cycloheximide [1]: 20% | increase of surface OXTR localization after 4 h of treatment [1]: more than twofold | surface OXTR localization at 48 h of treatment [1]: remained high | treatment time at which surface OXTR reached a plateau [1]: 6 h | increase of maximal IP1 production [2]: 35% | more surface WT OXTR than vehicle-treated cells [3]: 170%

CC(=O)NCCCOc1ccc(C(=O)N2CCC(N3C(=O)CCc4ccccc43)CC2)cc1 [OPC21268, N-[3-[4-[[4-(3,4-dihydro-2-oxo-1(2H)-quinolinyl)-1-piperidinyl]carbonyl]phenoxy]propyl]-acetamide]
reported OXTR affinity [4]: medium OXTR affinity

Cc1ccccc1C(=O)Nc1ccc(C(=O)N2CCC[C@@H](O)c3cc(Cl)ccc32)c(C)c1 [OPC41061, N-(4-{[(5R)-7-Chloro-5-hydroxy-2,3,4,5-tetrahydro-1H-1-benzazepin-1-yl]carbonyl}-3-methylphenyl)-2-methylbenzamide]
effect on cell surface OXTR in hTERT-HM cells [1, 5]: increased

COc1ccc(S(=O)(=O)N2c3ccc(Cl)cc3[C@](O)(c3ccccc3Cl)[C@@H]2C(=O)N2CCC[C@H]2C(N)=O)cc1OC [SR49059, (2S)-1-[[(2R,3S)-5-Chloro-3-(2-chlorophenyl)-1-[(3,4-dimethoxyphenyl)sulfonyl]-2,3-dihydro-3-hydroxy-1H-indol-2-yl]carbonyl]-2-pyrrolidinecarboxamide]
treatment time at which surface OXTR reached a plateau ([1]; hTERT-HM time course): 6 h | effect on cell surface OXTR in hTERT-HM cells [1, 5]: robustly increased | increase of cell surface OXTR abundance ([1]; hTERT-HM, 10 μM, 16 h): 2.3 fold | increase of surface OXTR localization after 4 h of treatment ([1]; hTERT-HM, 4 h): more than twofold | effect on cell surface OXTR in cells also treated with cycloheximide ([1]; hTERT-HM, 12 h, 10 μM with cycloheximide 25 μg/mL): no effect | effect on cell surface OXTR in cells also treated with brefeldin A ([1]; hTERT-HM, 12 h, with brefeldin A 5 μg/mL): no effect | surface OXTR localization at 48 h of treatment ([1]; hTERT-HM, 48 h): remained high | increase of maximal IP1 production [2]: 37% | increase of maximal oxytocin response (IP1 accumulation) ([2]; human myometrial (hTERT-HM) cells, 10 μM overnight, N=3 (FIG. 2)): 12% | reported OXTR affinity [4]: medium OXTR affinity | effect on cell surface WT OXTR ([3]; HEK293T transfected with WT OXTR): robustly increased | more surface WT OXTR than vehicle-treated cells [3]: 170%

COc1ccc(S(=O)(=O)N2C(=O)[C@@](c3ccccc3OC)(N3C[C@H](O)C[C@H]3C(=O)N(C)C)c3cc(Cl)ccc32)c(OC)c1 [SSR149415, (2S,4R)-1-[(3R)-5-Chloro-1-[(2,4-dimethoxyphenyl)sulfonyl]-2,3-dihydro-3-(2-methoxyphenyl)-2-oxo-1H-indol-3-yl]-4-hydroxy-N,N-dimethyl-2-pyrrolidinecarboxamide]
reported OXTR affinity [4]: medium OXTR affinity

CC(C)NC(=O)Cn1c(-c2ccc(F)c(Cl)c2)nc2ncc(OCCCN3CCOCC3)cc2c1=O.Cl [TASP0390325, 2-(3-Chloro-4-fluorophenyl)-N-(1-methylethyl)-6-[3-(4-morpholinyl)propoxy]-4-oxo-pyrido[2,3-d]pyrimidine-3(4H)-acetamide hydrochloride]
reported OXTR affinity ([4]; hydrochloride): extremely low affinity; also recorded: antagonist; low

Cc1cc(C(=O)N2Cc3cnn(C)c3Nc3ccccc32)ccc1CNC(=O)N1CCC[C@H]1C(=S)N1CCCN(C)CC1 [TCOT39, (2S)-N-[[4-[(4,10-dihydro-1-methylpyrazolo[3,4-b][1,5]benzodiazepin-5(1H)-yl)carbonyl]-2-methylphenyl]methyl]-2-[(hexahydro-4-methyl-1H-1,4-diazepin-1-yl)thioxomethyl]-1-pyrrolidinecarboxamide]
effect on cell surface OXTR in hTERT-HM cells [1, 5]: decreased

Cc1cc(C(=O)N2Cc3cnn(C)c3Nc3ccccc32)ccc1CNC(=O)N1CCN(Cc2cc(O)cc(O)c2)CC1 [WAY26746, 4-(3,5-Dihydroxybenzyl)-N-(2-methyl-4-[(1-methyl-4,10-dihydropyrazolo[3,4-b][1,5]benzodiazepin-5(1H)-yl)carbonyl]benzyl)piperazine-1-carboxamide]
effect on cell surface OXTR in hTERT-HM cells [1, 5]: no effect

Cc1nc2c([nH]1)CCN(C(=O)c1ccc(NC(=O)c3ccccc3-c3ccccc3)cc1)c1ccccc1-2 [YM087, N-[4-(2-methyl-4,5-dihydro-3H-imidazo[4,5-d][1]benzazepine-6-carbonyl)phenyl]-2-phenylbenzamide]
effect on cell surface OXTR in hTERT-HM cells [1, 5]: significantly decreased | reported OXTR affinity [4]: medium OXTR affinity

C[C@H]1CCC/C=C/[C@@H]2C[C@H](O)C[C@H]2[C@H](O)/C=C/C(=O)O1 [brefeldin A]
decrease of baseline cell surface OXTR abundance ([1]; hTERT-HM, 12 h): 62%
